In ChEMBL document CHEMBL1201862, “PubChem BioAssay data set” (2004):
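Method: 48-hour compound exposure of cells in 96-well plates, five concentrations, linear interpolation of endpoints. GI50 marks 50% less growth.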 Active and inactive are the calls of the source. Rule as the data show it: active = GI50 up to about 1.1 µM and inactive = higher.

How the values were obtained:
Experiment in all cases: NCI-60 cell line screen, 48 h
786-0 = test system: 786-0
HOP-62 = test system: HOP-62
HOP-92 = test system: HOP-92
Malme-3M = test system: Malme-3M
UACC-257 = test system: UACC-257
NCI-H460 = test system: NCI-H460
U-251 = test system: U-251
RPMI-8226 = test system: RPMI-8226
HL-60 = test system: HL-60
SK-MEL-5 = test system: SK-MEL-5
CCRF-CEM = test system: CCRF-CEM
OVCAR-3 = test system: OVCAR-3
SK-OV-3 = test system: SK-OV-3
OVCAR-5 = test system: OVCAR-5
SF-268 = test system: SF-268
M14 = test system: M14
SK-MEL-28 = test system: SK-MEL-28
HCC 2998 = test system: HCC 2998

Measured: GI50

COc1cc2c3c(c1OC)-c1c(ccc4c1OCO4)CC3(C#N)N(C(=O)c1ccccc1)CC2 (stereo unspecified)
inactive: 786-0 30.7 µM | HOP-62 38.5 µM | HOP-92 26.4 µM | Malme-3M 51.2 µM | UACC-257 57.7 µM | NCI-H460 98.9 µM | U-251 36.4 µM | RPMI-8226 8.91 µM | HL-60 > 100 µM | SK-MEL-5 > 100 µM | CCRF-CEM 51.3 µM | OVCAR-3 45.3 µM | SK-OV-3 50.5 µM | OVCAR-5 > 100 µM | SF-268 43.2 µM | M14 > 100 µM

CC(C(=O)c1ccc(Cl)cc1)/C(=N/NC(=O)NN)C(=O)Nc1cccc(C(F)(F)F)c1 (stereo unspecified)
inactive: 786-0 > 100 µM | Malme-3M > 100 µM | UACC-257 > 100 µM | NCI-H460 > 100 µM | U-251 > 100 µM | RPMI-8226 > 100 µM | HL-60 > 100 µM | SK-MEL-5 > 100 µM | CCRF-CEM > 100 µM | OVCAR-3 > 100 µM | SK-MEL-28 > 100 µM | HCC 2998 > 100 µM | SK-OV-3 > 100 µM | OVCAR-5 > 100 µM | SF-268 > 100 µM | M14 > 100 µM

C[P+]1(Cc2ccccc2)CCCC1
inactive: 786-0 > 100 µM | HOP-62 > 100 µM | Malme-3M 62.8 µM | UACC-257 > 100 µM | NCI-H460 > 100 µM | U-251 > 100 µM | RPMI-8226 > 100 µM | HL-60 > 100 µM | SK-MEL-5 > 100 µM | CCRF-CEM > 100 µM | OVCAR-3 > 100 µM | SK-MEL-28 > 100 µM | HCC 2998 71.1 µM | SK-OV-3 > 100 µM | OVCAR-5 > 100 µM | M14 > 100 µM

O=C(/C=C/c1cccc([N+](=O)[O-])c1)c1ccc([N+](=O)[O-])cc1
inactive: 786-0 > 100 µM | HOP-62 > 100 µM | Malme-3M > 100 µM | UACC-257 > 100 µM | NCI-H460 > 100 µM | U-251 > 100 µM | HL-60 > 100 µM | SK-MEL-5 > 100 µM | CCRF-CEM > 100 µM | OVCAR-3 > 100 µM | SK-MEL-28 > 100 µM | HCC 2998 > 100 µM | SK-OV-3 > 100 µM | OVCAR-5 > 100 µM | SF-268 > 100 µM | M14 > 100 µM

C[N+]1=c2c3cccc4cccc(c(=O)n2CC1)c43
inactive: 786-0 25.8 µM | HOP-62 22 µM | HOP-92 24.7 µM | Malme-3M 10.5 µM | UACC-257 16.1 µM | NCI-H460 11.5 µM | U-251 28.6 µM | RPMI-8226 23.9 µM | HL-60 20.9 µM | SK-MEL-5 18.2 µM | CCRF-CEM 11.6 µM | OVCAR-3 25.7 µM | SK-MEL-28 15.8 µM | SK-OV-3 20.6 µM | OVCAR-5 15.5 µM | SF-268 12.3 µM | M14 14.9 µM
